Laboratory results from patent publication US9781927B2, “Microbicidal composition” (Dow Global Technologies LLC, priority 2016, dated 2017).

Experiments:
[1] = system: Desulfovibrio longus ATCC 51456; assay: Biocidal efficacy and synergy of glutaraldehyde and Surf A-C against anaerobic sulfate-reducing bacteria (2 h kill, serial dilution enumeration); type: cell-based; conditions: Glut part, 35° C.
Procedure: (§1) Surfactants and biocides were evaluated for synergy by determining the synergy index (S.I.) of the combination. Synergy index was calculated based the concentration required to achieve a certain level of bacterial kill when the two antimicrobial compounds (A and B) alone and in combinations. The tests organisms were anaerobic sulfate-reducing bacteria (Desulfovibrio longus ATCC #51456), facultative bacteria Pseudomonas aeruginosa ATCC #10145 and Staphylococcus aureus ATCC #6538, R^2O(CH2CH(CH3)O)3(CH2CH2O)7H Surf. A R^2O(CH2CH(CH3)O)3(CH2CH2O)5H Surf. B R^2O(CH2CH(CH3)O)3(CH2CH2O)13H Surf. C where R^2 is a mixture of C8-C14 linear alkyl groups.
Inside an anaerobic chamber (Bactron anaerobic chamber), a deoxygenated sterile salt solution (3.1183 g of NaCl, 1.3082 mg of NaHCO3, 47.70 mg of KCl, 72.00 mg of CaCl2, 54.49 mg of MgSO4, 172.28 mg of Na2SO4, 43.92 mg of Na2CO3 in 1 L water) was inoculated with Desulfovibrio longus ATCC 51456 to a final bacterial concentration of 10^6 to 10^7 CFU/mL. Aliquots of this cell suspension were then treated with glutaraldehyde, and each of Surf A-C at selected active concentrations. After incubation at 35° C. for 2 hours, viable bacteria in the aliquots were enumerated using serial dilution method.
(§2) SI is calculated as follows: Ca/CA+Cb/CB=Synergy Index (“SI”)
(§3) Wherein: • Ca=Concentration of biocide A required to achieve a certain level of bacterial kill when used in combination with B • CA=Concentration of biocide A required to achieve a certain level of bacterial kill when used alone • Cb=Concentration of biocide B required to achieve a certain level of bacterial kill when used in combination with A • CB=Concentration of biocide B required to achieve a certain level of bacterial kill when used alone When the sum of Ca/CA and Cb/CB is greater than one, antagonism is indicated.

[2] = system: Pseudomonas aeruginosa ATCC 10145 and Staphylococcus aureus ATCC 6538; assay: Biocidal efficacy and synergy of glutaraldehyde and Surf. B against aerobic (facultative) bacteria (2 h kill, serial dilution enumeration); type: cell-based; conditions: Glut part, alone (1:0) or in combination with Surf. B, 37° C., approximately 10^7 CFU/mL, 0.85% NaCl
Procedure: as §1, §2, §3
Sterile 0.85% NaCl solution was inoculated with approximately 10^7 CFU/mL of Pseudomonas aeruginosa ATCC 10145 and Staphylococcus aureus ATCC 6538. […]

SMILES: O=CCCCC=O [Glut, glutaraldehyde, (1,5-pentanedial) CAS No. 111-30-8]
- Concentration (active ppm) for complete bacterial kill in 2 hours, Glut ([1]; alone (1:0) or in combination with Surf C): 29.6 active ppm
- Concentration (active ppm) for 99.99% bacterial kill in 2 hours, Glut ([1]; alone (1:0) or in combination with Surf. A, 10^6 to 10^7 CFU/mL): 13.2 active ppm
- Concentration (active ppm) for more than 99.999% bacterial kill in 2 hours, Glut ([1]; alone (1:0) or in combination with Surf. B): 29.6 active ppm
- Concentration (active ppm) for more than 99.999% bacterial kill in 2 hours, Glut [2]: 29.6 active ppm
